Columns and labels:
[1] = test system: barnyardgrass; assay: Test C preemergence; assay type: in vivo, Echinochloa crusgalli; settings: 0 to 100 scale (0 no effect, 100 complete control); for Plant response rating, Barnyardgrass: Preemergence, 500 g ai/ha, visual rating after 10 days; for Barnyardgrass plant response rating: Test C, preemergence, 125 g ai/ha
How it was run: (§1)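 Seeds in loam–sand blend received preemergence directed soil spray of test chemicals in non-phytotoxic solvent with surfactant; postemergence treatment was applied at one- to two-leaf stage (2–10 cm). After 10 days in greenhouse, injury rated visually versus untreated controls, 0 (no effect) to 100 (complete control).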

[2] = test system: blackgrass; assay: Test C preemergence; assay type: in vivo, Alopecurus myosuroides; settings: 0 to 100 scale (0 no effect, 100 complete control); for Plant response rating, Blackgrass: Preemergence, 500 g ai/ha, visual rating after 10 days; for Blackgrass plant response rating: Test C, preemergence, 125 g ai/ha
How it was run: as §1

[3] = test system: corn; assay: Test C preemergence; assay type: in vivo, Zea mays; settings: 0 to 100 scale (0 no effect, 100 complete control); for Plant response rating, Corn: Preemergence, 500 g ai/ha, visual rating after 10 days; for Corn plant response rating: Test C, preemergence, 125 g ai/ha
How it was run: as §1

[4] = test system: green foxtail; assay: Test C preemergence; assay type: in vivo, Setaria viridis; settings: 0 to 100 scale (0 no effect, 100 complete control); for Plant response rating, Foxtail, Green: Preemergence, 500 g ai/ha, visual rating after 10 days; for Foxtail, Green plant response rating: Test C, preemergence, 125 g ai/ha
How it was run: as §1

[5] = test system: kochia; assay: Test C preemergence; assay type: in vivo, Bassia scoparia; settings: 0 to 100 scale (0 no effect, 100 complete control); for Plant response rating, Kochia: Preemergence, 500 g ai/ha, visual rating after 10 days; for Kochia plant response rating: Test C, preemergence, 125 g ai/ha
How it was run: as §1

[6] = test system: oat, wild; assay: Test C preemergence; assay type: in vivo, Avena fatua; settings: 0 to 100 scale (0 no effect, 100 complete control); for Plant response rating, Oat, Wild: Preemergence, 500 g ai/ha, visual rating after 10 days; for Oat, Wild plant response rating: Test C, preemergence, 125 g ai/ha
How it was run: as §1

[7] = test system: pigweed, palmer; assay: Test C preemergence; assay type: in vivo, Amaranthus palmeri; settings: 0 to 100 scale (0 no effect, 100 complete control); for Plant response rating, Pigweed, Palmer: Preemergence, 500 g ai/ha, visual rating after 10 days; for Pigweed, Palmer plant response rating: Test C, preemergence, 125 g ai/ha
How it was run: as §1

[8] = test system: ragweed; assay: Test C preemergence; assay type: in vivo, Ambrosia artemisiifolia; settings: 0 to 100 scale (0 no effect, 100 complete control); for Plant response rating, Ragweed: Preemergence, 500 g ai/ha, visual rating after 10 days; for Ragweed plant response rating: Test C, preemergence, 125 g ai/ha
How it was run: as §1

[9] = test system: ryegrass, Italian; assay: Test C preemergence; assay type: in vivo, Lolium multiflorum; settings: 0 to 100 scale (0 no effect, 100 complete control); for Plant response rating, Ryegrass, Italian: Preemergence, 500 g ai/ha, visual rating after 10 days; for Ryegrass, Italian plant response rating: Test C, preemergence, 125 g ai/ha
How it was run: as §1

[10] = test system: soybean; assay: Test C preemergence; assay type: in vivo, Glycine max; settings: 0 to 100 scale (0 no effect, 100 complete control); for Plant response rating, Soybean: Preemergence, 500 g ai/ha, visual rating after 10 days; for Soybean plant response rating: Test C, preemergence, 125 g ai/ha
How it was run: as §1

[11] = test system: wheat; assay: Test C preemergence; assay type: in vivo, Triticum aestivum; settings: 0 to 100 scale (0 no effect, 100 complete control); for Plant response rating, Wheat: Preemergence, 500 g ai/ha, visual rating after 10 days; for Wheat plant response rating: Test C, preemergence, 125 g ai/ha
How it was run: as §1

[12] = test system: barnyardgrass; assay: Test C postemergence; assay type: in vivo, Echinochloa crusgalli; settings: 10 days
How it was run: as §1

[13] = test system: blackgrass; assay: Test C postemergence; assay type: in vivo, Alopecurus myosuroides; settings: 10 days
How it was run: as §1

[14] = test system: corn; assay: Test C postemergence; assay type: in vivo, Zea mays; settings: 10 days
How it was run: as §1

[15] = test system: kochia; assay: Test C postemergence; assay type: in vivo, Bassia scoparia; settings: 10 days
How it was run: as §1

[16] = test system: oat, wild; assay: Test C postemergence; assay type: in vivo, Avena fatua; settings: 10 days
How it was run: as §1

[17] = test system: pigweed, palmer; assay: Test C postemergence; assay type: in vivo, Amaranthus palmeri; settings: 10 days
How it was run: as §1

[18] = test system: ragweed; assay: Test C postemergence; assay type: in vivo, Ambrosia artemisiifolia; settings: 10 days
How it was run: as §1

[19] = test system: ryegrass, Italian; assay: Test C postemergence; assay type: in vivo, Lolium multiflorum; settings: 10 days
How it was run: as §1

[20] = test system: soybean; assay: Test C postemergence; assay type: in vivo, Glycine max; settings: 10 days
How it was run: as §1

[21] = test system: wheat; assay: Test C postemergence; assay type: in vivo, Triticum aestivum; settings: 10 days
How it was run: as §1

[22] = test system: galium; assay: Test C postemergence; assay type: in vivo, Galium aparine; settings: 10 days
How it was run: as §1

[23] = test system: horseweed; assay: Test C postemergence; assay type: in vivo, Erigeron canadensis; settings: 10 days
How it was run: as §1

[24] = test system: barnyardgrass; assay: Test D flooded paddy test; assay type: in vivo, Echinochloa crus-galli; settings: 250 g ai/ha, applied to paddy water, visual rating after 13 to 14 days, scale 0 to 100 (0 no effect, 100 complete control)
Experimental: (§2) Plant species in the flooded paddy test selected from barnyardgrass (Echinochloa crus-galli), ducksalad (Heteranthera limosa), rice (Oryza sativa), and sedge, umbrella (small-flower umbrella sedge, Cyperus difformis) were grown to the 2-leaf stage for testing. At time of treatment, test pots were flooded to 3 cm above the soil surface, treated by application of test compounds directly to the paddy water, and then maintained at that water depth for the duration of the test. Treated plants and controls were maintained in a greenhouse for 13 to 14 days, after which time all species were compared to controls and visually evaluated. Plant response ratings, summarized in Table D, are based on a scale of 0 to 100 where 0 is no effect and 100 is complete control. A dash (-) response means no test result.

[25] = test system: ducksalad; assay: Test D flooded paddy test; assay type: in vivo, Heteranthera limosa; settings: 250 g ai/ha, applied to paddy water, visual rating after 13 to 14 days, scale 0 to 100 (0 no effect, 100 complete control)
Experimental: as §2

[26] = test system: rice; assay: Test D flooded paddy test; assay type: in vivo, Oryza sativa; settings: 250 g ai/ha, applied to paddy water, visual rating after 13 to 14 days, scale 0 to 100 (0 no effect, 100 complete control)
Experimental: as §2

[27] = test system: sedge, umbrella; assay: Test D flooded paddy test; assay type: in vivo, Cyperus difformis; settings: 250 g ai/ha, applied to paddy water, visual rating after 13 to 14 days, scale 0 to 100 (0 no effect, 100 complete control)
Experimental: as §2

[28] = 125 g ai/ha, postemergence, 0 to 100 scale, 0 no effect, 100 complete control
[29] = Postemergence, 500 g ai/ha, visual 0 to 100 scale (0 no effect, 100 complete control)

## COC[C@H]1CN(C(=O)c2cc(-n3cnc(C4CC4)n3)ccc2OC)c2cccc(Cl)c2O1 [Compound 235]
[1]
  Plant response rating, Barnyardgrass: 90
  Barnyardgrass plant response rating: 50
[2]
  Plant response rating, Blackgrass: 80
  Blackgrass plant response rating: 50
[3]
  Plant response rating, Corn: 0
  Corn plant response rating: 20
[4]
  Plant response rating, Foxtail, Green: 100
  Foxtail, Green plant response rating: 100
[5]
  Plant response rating, Kochia: 90
  Kochia plant response rating: 80
[6]
  Plant response rating, Oat, Wild: 80
  Oat, Wild plant response rating: 20
[7]
  Plant response rating, Pigweed, Palmer: 100
  Pigweed, Palmer plant response rating: 90
[8]
  Plant response rating, Ragweed: 60
  Ragweed plant response rating: 30
[9]
  Plant response rating, Ryegrass, Italian: 90
  Ryegrass, Italian plant response rating: 80
[10]
  Plant response rating, Soybean: 70
  Soybean plant response rating: 60
[11]
  Plant response rating, Wheat: 30
  Wheat plant response rating: 30
[12]; [28]
  Plant response rating, Barnyardgrass: 90
[12]; [29]
  Plant response rating, Barnyardgrass: 90
[13]; [28]
  Plant response rating, Blackgrass: 70
[13]; [29]
  Plant response rating, Blackgrass: 90
[14]; [28]
  Plant response rating, Corn: 50
[14]; [29]
  Plant response rating, Corn: 90
[15]; [28]
  Plant response rating, Kochia: 90
[15]; [29]
  Plant response rating, Kochia: 90
[16]; [28]
  Plant response rating, Oat, Wild: 40
[16]; [29]
  Plant response rating, Oat, Wild: 60
[17]; [28]
  Plant response rating, Pigweed, Palmer: 70
[17]; [29]
  Plant response rating, Pigweed, Palmer: 90
[18]; [28]
  Plant response rating, Ragweed: 70
[18]; [29]
  Plant response rating, Ragweed: 80
[19]; [28]
  Plant response rating, Ryegrass, Italian: 70
[19]; [29]
  Plant response rating, Ryegrass, Italian: 100
[20]; [28]
  Plant response rating, Soybean: 100
[20]; [29]
  Plant response rating, Soybean: 100
[21]; [28]
  Plant response rating, Wheat: 30
[21]; [29]
  Plant response rating, Wheat: 30
[22]; [28]
  Plant response rating, Galium: 100
[22]; [29]
  Plant response rating, Galium: 100
[23]; [28]
  Plant response rating, Horseweed: 30
[23]; [29]
  Plant response rating, Horseweed: 70
[24]
  Plant response rating, Barnyardgrass (Flood): 10
[25]
  Plant response rating, Ducksalad (Flood): 90
[26]
  Plant response rating, Rice (Flood): 15
[27]
  Plant response rating, Sedge, Umbrella (Flood): 90

## COC[C@H]1CN(C(=O)c2cccc(-n3cnc(C(C)(C)O)n3)c2)c2cccc(Cl)c2O1 [Compound 253]
[1]
  Plant response rating, Barnyardgrass: 60
  Barnyardgrass plant response rating: 50
[2]
  Plant response rating, Blackgrass: 50
  Blackgrass plant response rating: 20
[3]
  Plant response rating, Corn: 10
  Corn plant response rating: 0
[4]
  Plant response rating, Foxtail, Green: 100
  Foxtail, Green plant response rating: 80
[5]
  Plant response rating, Kochia: 80
  Kochia plant response rating: 60
[6]
  Plant response rating, Oat, Wild: 90
  Oat, Wild plant response rating: 30
[7]
  Plant response rating, Pigweed, Palmer: 100
  Pigweed, Palmer plant response rating: 90
[8]
  Plant response rating, Ragweed: 80
  Ragweed plant response rating: 20
[9]
  Plant response rating, Ryegrass, Italian: 60
  Ryegrass, Italian plant response rating: 40
[10]
  Plant response rating, Soybean: 80
  Soybean plant response rating: 40
[11]
  Plant response rating, Wheat: 50
  Wheat plant response rating: 0
[12]; [28]
  Plant response rating, Barnyardgrass: 20
[12]; [29]
  Plant response rating, Barnyardgrass: 30
[13]; [28]
  Plant response rating, Blackgrass: 40
[13]; [29]
  Plant response rating, Blackgrass: 80
[14]; [28]
  Plant response rating, Corn: 20
[14]; [29]
  Plant response rating, Corn: 80
[15]; [28]
  Plant response rating, Kochia: 80
[15]; [29]
  Plant response rating, Kochia: 80
[16]; [28]
  Plant response rating, Oat, Wild: 50
[16]; [29]
  Plant response rating, Oat, Wild: 90
[17]; [29]
  Plant response rating, Pigweed, Palmer: 70
[18]; [28]
  Plant response rating, Ragweed: 70
[18]; [29]
  Plant response rating, Ragweed: 70
[19]; [28]
  Plant response rating, Ryegrass, Italian: 50
[19]; [29]
  Plant response rating, Ryegrass, Italian: 50
[20]; [28]
  Plant response rating, Soybean: 100
[20]; [29]
  Plant response rating, Soybean: 100
[21]; [28]
  Plant response rating, Wheat: 20
[21]; [29]
  Plant response rating, Wheat: 70
[22]; [28]
  Plant response rating, Galium: 100
[22]; [29]
  Plant response rating, Galium: 100
[23]; [28]
  Plant response rating, Horseweed: 0
[23]; [29]
  Plant response rating, Horseweed: 20
[24]
  Plant response rating, Barnyardgrass (Flood): 0
[25]
  Plant response rating, Ducksalad (Flood): 85
[26]
  Plant response rating, Rice (Flood): 10
[27]
  Plant response rating, Sedge, Umbrella (Flood): 70

Source: patent US20260262643A1, “HERBICIDAL BENZOXAZINES” (FMC CORPORATION, priority 2022, published 2026)
